The test system of experiment [1] is LY-96 mRNA induction in MV4-11 cells. In words: LSD1 LY96 Quantigene Assay. To be noted: Homo sapiens, 16 h, Quantigene 2.0. It counts as cell-based. The protocol:
MV4-11 cells were cultured at a density of 4×10^4 cells per well in a 96-well plates and treated with various doses inhibitor starting from 10 μM up to 0.0005 μM for 16 h. The LY-96 mRNA induction was quantified using the Quantigene 2.0 system (Affymetrix). The cells were lysed with Lysis Mixture containing Proteinase K. The working reagent for capturing the RNA was prepared according to the steps detailed in “Capturing Target RNA from Cultured Cell or Blood Lysates” in the Quantigene handbook. The subsequent hybridization with LY-96 probe, signal amplification and detection steps were performed as described in the manual. The chemiluminescence was read using Envision (PerkinElmer) and Abase (IDBS software) was used to plot the dose response curves and calculate IC50.

Experiment [2] concerns Kasumi-1. In words: Kasumi-1 GI50 Assay. It counts as cell-based. To be noted: Homo sapiens, 288 h; Kasumi-1 cells, 12 days, Cell Titer-Glo viability. The protocol:
Cells were plated at 5,000 cells per well in 96 well tissue culture dishes containing tool compounds arrayed in a 10-point dose curve, ranging from […] with 4-fold dilutions, and split every fourth day at a fixed ratio to re-establish 5,000 cells/well density for DMSO-treated controls. Cell treatments were carried out for a total of 12 days. At each 4-day split, the viable cell numbers were determined using the Cell Titer-Glo luminescent cell viability assay (Promega, Madison, Wis. USA) using an EnVision® Multilabel Plate Reader (Perkin Elmer, Waltham, Mass. USA). GraphPad Prism 6 (GraphPad Software, Inc., La Jolla, Calif. USA) was used for curve fitting and determination of GI50 values.
(In general: ATP-based viability assays read luminescence as a measure of living cells.)

Experiment [3] deals with LSD1 (Homo sapiens (Human), UniProt O60341). The experiment is described as follows: LSD1 TR-FRET Assay. As to conditions: biotinylated H3K4me1 peptide 4 μM, 10 nM LSD1, 40 nM FAD, 50 minutes at room temperature. The class given is biochemical. The protocol:
LSD1 demethylase reactions were carried out in 50 mM HEPES pH 7.4, 100 mM NaCl, 1 mM DTT, 0.01% Tween-20, and 0.1 mg/mL BSA. All enzymatic reactions were performed for 50 minutes at room temperature in a 10-μL volume. Five microliters of 8 μM biotinylated H3K4me1 peptide solution was added to each well of a black 384 well, clear-bottom assay plate containing 80 nL compound (final concentration of 0.8% DMSO and 4 μM substrate). Reactions were initiated by the addition of a mixture containing 20 nM LSD1 and 80 nM FAD (5 μL). LSD1 and FAD final concentrations were 10 and 40 nM, respectively. Enzyme activity was stopped by the addition of 90 μL of high salt buffer consisting of 50 mM HEPES pH 7.4, 500 mM NaCl, 1 mM DTT, 0.01% Tween-20, and 0.1 mg/mL BSA. Ten microliters of the quenched reaction mixtures were transferred to a black 384 well ProxiPlate. Ten microliters of detection mixture was added to the ProxiPlate, Europium-labeled antibody and Streptavidin APC were used at final concentrations of 0.3 nM and 200 nM, respectively (total assay volume of 20 μL). Capture of the product peptide by the anti-H3K4me0 antibody and Streptavidin APC was allowed to proceed for 60 min at room temperature before measuring the TR-FRET signal. Plates were read on a Perkin Elmer EnVision. Percent inhibition was calculated using Max (no inhibitor) and Min (quenched with stop buffer) controls and inhibition curves plotted to determine IC50 values.
In general terms: In TR-FRET formats the signal depends on donor and acceptor labels being close together.

20 compounds from patent US10517849B2, “LSD1 inhibitors and medical uses thereof” (Constellation Pharmaceuticals, Inc., priority 2016, dated 2019) can be followed below.

The structures appear in SMILES notation. Where a name gives a salt, the structure may show the parent alone. Some results are limits rather than exact numbers.

As to `CC/C(=C\c1ccccc1)[C@@H]1C[C@H]1NC1CC2(CCN(C[C@@H](O)CO)CC2)C1` [Compound 19, (R)-3-(2-(((1R,2S)-2-((E)-1-phenylbut-1-en-2-yl)cyclopropyl)amino)-7-azaspiro[3.5]nonan-7-yl)propane-1,2-diol dihydrochloride], in experiment [1], the EC50 (as a rule, the concentration at which the effect is half-maximal) was below 0.1 µM. Moreover, the GI50 (as a rule, the concentration at which growth is held to half of that of the control) in experiment [2] is below 0.1 µM.
On to `CC/C(=C\c1ccccc1)[C@@H]1C[C@H]1NC1CC2(C1)CN(CCNS(=O)(=O)C(C)C)C2` [Compound 8, N-(2-(6-(((1R,2S)-2-((E)-1-phenylbut-1-en-2-yl)cyclopropyl)amino)-2-azaspiro[3.3]heptan-2-yl)ethyl)propane-2-sulfonamide bis(2,2,2-trifluoroacetate)], for which the concentration for a half-maximal effect (EC50) in experiment [1] was below 0.1 µM. The GI50 in experiment [2] was below 0.1 µM.
For the compound `CC/C(=C\c1ccccc1)[C@@H]1C[C@H]1NC1CC2(C1)CN(CC(=O)NCCO)C2` [Compound 13, N-(2-hydroxyethyl)-2-(6-(((1R,2S)-2-((E)-1-phenylbut-1-en-2-yl)cyclopropyl)amino)-2-azaspiro[3.3]heptan-2-yl)acetamide bis(2,2,2-trifluoroacetate)], the IC50 – broadly, the concentration needed to halve the response being measured – in experiment [3] is below 0.1 µM. In addition, the EC50 in experiment [1] was below 0.1 µM. For the same compound, the 50% growth inhibitory concentration (GI50) in experiment [2] is below 0.1 µM.
Take `CC/C(=C\c1ccccc1)[C@@H]1C[C@H]1NC1CC2(C1)CN(C(CO)CO)C2` [Compound 2, 2-(6-(((1R,2S)-2-((E)-1-phenylbut-1-en-2-yl)cyclopropyl)amino)-2-azaspiro[3.3]heptan-2-yl)propane-1,3-diol]: in experiment [3], the IC50 is below 0.1 µM. For the same compound, the EC50 in experiment [1] is below 0.1 µM. Further, the concentration for 50% growth inhibition (GI50) in experiment [2] was below 0.1 µM.
Take `CC/C(=C\c1ccccc1)[C@@H]1C[C@H]1NC1CC2(CCN(C[C@H](O)CO)CC2)C1` [Compound 20, (S)-3-(2-(((1R,2S)-2-((E)-1-phenylbut-1-en-2-yl)cyclopropyl)amino)-7-azaspiro[3.5]nonan-7-yl)propane-1,2-diol dihydrochloride]: the 50% effective concentration (EC50) in experiment [1] was below 0.1 µM. Besides, in experiment [2], the 50% growth inhibitory concentration (GI50) is below 0.1 µM.
Turning to `CC/C(=C\c1ccccc1)[C@@H]1C[C@H]1NC1CC2(C1)CN(CCNS(=O)(=O)C1CC1)C2` [Compound 6, N-(2-(6-(((1R,2S)-2-((E)-1-phenylbut-1-en-2-yl)cyclopropyl)amino)-2-azaspiro[3.3]heptan-2-yl)ethyl)cyclopropanesulfonamide bis(2,2,2-trifluoroacetate)], in experiment [1], the EC50 is below 0.1 µM. Also, the GI50 in experiment [2] is below 0.1 µM.
In the case of `CC/C(=C\c1ccccc1)[C@@H]1C[C@H]1NC1CC2(C1)CN(CC(=O)NC(C)C)C2` [Compound 27, N-isopropyl-2-(6-(((1R,2S)-2-((E)-1-phenylbut-1-en-2-yl)cyclopropyl)amino)-2-azaspiro[3.3]heptan-2-yl)acetamide bis(2,2,2-trifluoroacetate)], the EC50 in experiment [1] was below 0.1 µM. Besides, the GI50 in experiment [2] is below 0.1 µM.
`CC/C(=C\c1ccccc1)[C@@H]1C[C@H]1NC1CC2(C1)CN(CC(=O)NS(C)(=O)=O)C2` [Compound 29, N-(methylsulfonyl)-2-(6-(((1R,2S)-2-((E)-1-phenylbut-1-en-2-yl)cyclopropyl)amino)-2-azaspiro[3.3]heptan-2-yl)acetamide bis(2,2,2-trifluoroacetate)]: the half-maximal effective concentration (EC50) in experiment [1] is below 0.1 µM. Besides, in experiment [2], the GI50 is below 0.1 µM.
With `CC/C(=C\c1ccccc1)[C@@H]1C[C@H]1NC1CC2(C1)CN(CCNS(=O)(=O)CCOC)C2` [Compound 9, 2-methoxy-N-(2-(6-(((1R,2S)-2-((E)-1-phenylbut-1-en-2-yl)cyclopropyl)amino)-2-azaspiro[3.3]heptan-2-yl)ethyl)ethanesulfonamide bis(2,2,2-trifluoroacetate)], the EC50 in experiment [1] is below 0.1 µM. In experiment [2], the GI50 was below 0.1 µM.
In experiment [1], `CC/C(=C\c1ccccc1)[C@@H]1C[C@H]1NC1CC2(C1)CN(C(C)(C)C(N)=O)C2` [Compound 14, 2-methyl-2-(6-(((1R,2S)-2-((E)-1-phenylbut-1-en-2-yl)cyclopropyl)amino)-2-azaspiro[3.3]heptan-2-yl)propanamide bis(2,2,2-trifluoroacetate)] came in with an EC50 below 0.1 µM. In experiment [2], the GI50 was below 0.1 µM.
Compound `CC/C(=C\c1ccccc1)[C@@H]1C[C@H]1NC1CC2(C1)CN(CCNS(=O)(=O)CC)C2` [Compound 7, N-(2-(6-(((1R,2S)-2-((E)-1-phenylbut-1-en-2-yl)cyclopropyl)amino)-2-azaspiro[3.3]heptan-2-yl)ethyl)ethanesulfonamide bis(2,2,2-trifluoroacetate)] yielded a concentration giving a half-maximal response (EC50) in experiment [1] below 0.1 µM. Besides, in experiment [2], the 50% growth inhibitory concentration (GI50) was below 0.1 µM.
Turning to `CC/C(=C\c1ccccc1)[C@@H]1C[C@H]1NC1CC2(CCN(CCC(N)=O)CC2)C1` [Compound 24, 3-(2-(((1R,2S)-2-((E)-1-phenylbut-1-en-2-yl)cyclopropyl)amino)-7-azaspiro[3.5]nonan-7-yl)propanamide dihydrochloride], the EC50 in experiment [1] was below 0.1 µM. Further, in experiment [2], the GI50 was below 0.1 µM.
As to `CC/C(=C\c1ccccc1)[C@@H]1C[C@H]1NC1CC2(CCN(C[C@@H](C)O)CC2)C1` [Compound 16, (R)-1-(2-(((1R,2S)-2-((E)-1-phenylbut-1-en-2-yl)cyclopropyl)amino)-7-azaspiro[3.5]nonan-7-yl)propan-2-ol dihydrochloride], in experiment [1], the EC50 was below 0.1 µM. Further, the GI50 in experiment [2] was below 0.1 µM.
`CC/C(=C\c1ccccc1)[C@@H]1C[C@H]1NC1CC2(CCN(CC(C)(C)O)CC2)C1` [Compound 18, 2-methyl-1-(2-(((1R,2S)-2-((E)-1-phenylbut-1-en-2-yl)cyclopropyl)amino)-7-azaspiro[3.5]nonan-7-yl)propan-2-ol dihydrochloride] registered a concentration for a half-maximal effect (EC50) in experiment [1] below 0.1 µM. Moreover, the GI50 in experiment [2] is below 0.1 µM.
With `CC/C(=C\c1ccccc1)[C@@H]1C[C@H]1NC1CC2(C1)CN(CC(C)(C)NS(C)(=O)=O)C2` [Compound 15, N-(2-methyl-1-(6-(((1R,2S)-2-((E)-1-phenylbut-1-en-2-yl)cyclopropyl)amino)-2-azaspiro[3.3]heptan-2-yl)propan-2-yl)methanesulfonamide bis(2,2,2-trifluoroacetate)], the EC50 in experiment [1] is below 0.1 µM. In experiment [2], the GI50 is below 0.1 µM.
In turn, `CC/C(=C\c1ccccc1)[C@@H]1C[C@H]1NC1CC2(C1)CN(C(C)C(N)=O)C2` (stereo partly drawn) [Compound 30, 2-(6-(((1R,2S)-2-((E)-1-phenylbut-1-en-2-yl)cyclopropyl)amino)-2-azaspiro[3.3]heptan-2-yl)propanamide bis(2,2,2-trifluoroacetate)] came in with a 50% effective concentration (EC50) in experiment [1] below 0.1 µM. The concentration for 50% growth inhibition (GI50) in experiment [2] is below 0.1 µM.
On to `CC/C(=C\c1ccccc1)[C@@H]1C[C@H]1NC1CC2(CCN(C(CO)CO)CC2)C1` [Compound 10, 2-(2-(((1R,2S)-2-((E)-1-phenylbut-1-en-2-yl)cyclopropyl)amino)-7-azaspiro[3.5]nonan-7-yl)propane-1,3-diol bis(2,2,2-trifluoroacetate)], for which the EC50 in experiment [1] is below 0.1 µM. For the same compound, the GI50 in experiment [2] was below 0.1 µM.
For `CC/C(=C\c1ccccc1)[C@@H]1C[C@H]1NC1CC2(C1)CN(CC(=O)NCCS(C)(=O)=O)C2` [Compound 26, N-(2-(methylsulfonyl)ethyl)-2-(6-(((1R,2S)-2-((E)-1-phenylbut-1-en-2-yl)cyclopropyl)amino)-2-azaspiro[3.3]heptan-2-yl)acetamide bis(2,2,2-trifluoroacetate)], the EC50 in experiment [1] is below 0.1 µM. The concentration for 50% growth inhibition (GI50) in experiment [2] was below 0.1 µM.
As for `CC/C(=C\c1ccccc1)[C@@H]1C[C@H]1NC1CC2(C1)CN(CCNC(C)=O)C2` [Compound 5, N-(2-(6-(((1R,2S)-2-((E)-1-phenylbut-1-en-2-yl)cyclopropyl)amino)-2-azaspiro[3.3]heptan-2-yl)ethyl)acetamide bis(2,2,2-trifluoroacetate)], the concentration giving a half-maximal response (EC50) in experiment [1] was below 0.1 µM. For the same compound, the GI50 in experiment [2] was below 0.1 µM.
For the compound `CC/C(=C\c1ccccc1)[C@@H]1C[C@H]1NC1CC2(C1)CN(CC(=O)N(C)C)C2` [Compound 28, N,N-dimethyl-2-(6-(((1R,2S )-2-((E)-1-phenylbut-1-en-2-yl)cyclopropyl)amino)-2-azaspiro[3.3]heptan-2-yl)acetamide bis(2,2,2-trifluoroacetate)], the EC50 in experiment [1] was below 0.1 µM. In experiment [2], the GI50 is below 0.1 µM.
